In US20080051419A1, “AMINE DERIVATIVES USEFUL AS ANTICANCER AGENTS” (PFIZER INC., priority 2006, published 2008):
pIC50: −log10 of the molar value. Where two headings read alike, the source gives them in different places.

Target: T1, Akt1 (Homo sapiens, UniProt P31749, S473D)
T1 construct: The version of Akt used in these studies lacks the pleckstrin homology (PH) domain
Test: Akt1 kinase assay, fluorescence polarization (IMAP)
Assay type: biochemical
Conditions: for IC50: read-out: Avg Akt kinase, μM (50% inhibition); for pIC50: Table 1, concentration bins, read-out: Concentration Range at which exemplary compounds of formula I inhibit Akt kinase activity
Protocol: The Akt1 kinase assay is based on the measurement of fluorescence polarization using IMAP technology (Molecular Devices Corporation #R8062). Two microliters of inhibitor compounds diluted to a concentration of 10 millimolar are added to column 2 of a polypropylene 96-well plate containing 98 microliters of 100% DMSO; the wells in columns 3-12 contain 60 microliters of 100% DMSO. The various test compounds are serially diluted 1:3 across the plate by pipetting 30 microliters of compounds into wells containing 60 microliters of 100% DMSO. Column 12 receives DMSO only and is used as a negative control for inhibition. The components of the wells are mixed and 15 microliters of each well are transferred to another 96-well plate already containing 60 microliters of reaction buffer (RB: 10 mM Tris-HCl, pH 7.5, 10 mM MgCl2, 0.1 mM EGTA, 0.01% Triton-X100 (Sigma #X-100), freshly added 1 mM DTT). After mixing, the […] reactions are assembled. First, five microliters of the above compound/reaction buffer mixture is transferred to the bottom of a 96-well black polystyrene reaction plate (Costar, #3694). Next, ten microliters of a solution containing 4 micromolar ATP and 40 nanomolar fluorescent-labeled Crosstide (Tamara-labeled […] peptide) are added. Then, 5 microliters (1.5 nanograms) of Akt protein in RB are added. The version of Akt used in these studies lacks the pleckstrin homology (PH) domain, and contains an aspartic acid residue in place of a serine residue in position 473 within the Akt1 hydrophobic motif. The Akt1 protein contains a polyhistidine tag at the amino terminus and is prephosphorylated on threonine at position 308 in order to activate latent kinase activity. Once the reaction components and inhibitors are assembled, the plates are gently tapped, covered with foil, and then incubated at ambient temperature for 30 minutes. IMAP beads (Molecular Devices) are then added (60 microliters of a 1:400 dilution of beads in RB). Plates are read on a Victor Plate Reader with the following settings: CW lamp filter: 544 nm, emission filter: 615 nm. Control values from wells lacking Akt protein are subtracted from the gross readings, and IC50 values are calculated using XLDA.

[1] = average Akt kinase activity (IC50)

T1 sequence (P31749 118-480 S473D limits assumed, species assumed): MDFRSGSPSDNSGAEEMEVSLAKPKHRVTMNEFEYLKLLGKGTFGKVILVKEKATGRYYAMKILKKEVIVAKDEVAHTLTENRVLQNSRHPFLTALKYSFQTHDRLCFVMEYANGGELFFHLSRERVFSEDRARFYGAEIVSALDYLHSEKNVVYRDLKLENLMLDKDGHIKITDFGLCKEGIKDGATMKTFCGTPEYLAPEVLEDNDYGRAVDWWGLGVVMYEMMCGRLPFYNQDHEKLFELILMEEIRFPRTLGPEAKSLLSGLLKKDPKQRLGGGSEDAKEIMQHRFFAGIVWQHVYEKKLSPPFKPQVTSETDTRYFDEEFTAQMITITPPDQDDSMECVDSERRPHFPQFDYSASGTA

Molecule	IC50 [1] [µM]	pIC50	IC50 (Table 3) [µM]	IC50 (Table 4) [µM]
(E)-3-(3-trifluoromethyl)styryl)-1-(5-methyl-7H-pyrrolo[2,3-d]pyrimidin-4-yl)-3-amine [Example 68]	1.14			
CCc1c[nH]c2ncnc(N3CC[C@](N)(CNC(=O)c4cccc(Cl)c4)C3)c12 [Example 133]	0.00447	8.00 to 8.60		
N[C@]1(CNC(=O)c2cccc(Cl)c2)CCN(c2ncnc3[nH]cc(Cl)c23)C1 [Example 112, N-{[(3S)-3-amino-1-(5-chloro-7H-pyrrolo[2,3-d]pyrimidin-4-yl)pyrrolidin-3-yl]methyl}-3-chlorobenzamide]	0.00376	8.00 to 8.60		
N[C@]1(CNC(=O)c2cccc(F)c2Cl)CCN(c2ncnc3[nH]cc(Cl)c23)C1 [Example 124, N-{[(3S)-3-amino-1-(5-chloro-7H-pyrrolo[2,3-d]pyrimidin-4-yl)pyrrolidin-3-yl]methyl}-2-chloro-3-fluorobenzamide]	0.00691	8.00 to 8.60		
N[C@]1(CNC(=O)c2c(F)cccc2Cl)CCN(c2ncnc3[nH]cc(Cl)c23)C1 [Example 113, N-{[(3S)-3-amino-1-(5-chloro-7H-pyrrolo[2,3-d]pyrimidin-4-yl)pyrrolidin-3-yl]methyl}-2-chloro-6-fluorobenzamide]	0.0332	7.00 to 8.00		
Cc1c[nH]c2ncnc(N3CCC(N)(CNc4ccccc4C(=O)NCc4ccccc4)C3)c12 (stereo not drawn) [Example 27, 2-({[3-amino-1-(5-methyl-7H-pyrrolo[2,3-d]pyrimidin-4-yl)pyrrolidin-3-yl]methyl}amimo)-N-benzylbenzamide]		5.00 to 7.00	5.29	
N#Cc1c[nH]c2ncnc(N3CCC(N)(COc4cccc(C(F)(F)F)c4)C3)c12 (stereo not drawn) [Example 63, 4-(3-amino-3-{[3-(trifluoromethyl)phenoxy]methyl}pyrrolidin-1-yl)-7H-pyrrolo[2,3-d]pyrimidine-5-carbonitrile]		7.00 to 8.00		0.0641
Cc1cccc(F)c1C(=O)NC[C@@]1(N)CCN(c2ncnc3[nH]cc(C)c23)C1 [Example 121]	0.0418	7.00 to 8.00		
Cc1cccc(C(=O)NC[C@@]2(N)CCN(c3ncnc4[nH]cc(Cl)c34)C2)c1Cl [Example 119]	0.00785	8.00 to 8.60		
Cc1c[nH]c2ncnc(N3CC[C@](N)(COc4cccc(C(F)(F)F)c4)C3)c12 [Example 61, (3R)-1-(5-methyl-7H-pyrrolo[2,3-d]pyrimidin-4-yl)-3-{[3-(trifluoromethyl)-phenoxy]methyl}pyrrolidin-3-amine]		7.00 to 8.00		0.0335
Cc1cc(C(=O)NC[C@]2(N)CCN(c3ncnc4[nH]cc(Cl)c34)C2)no1 [Example 79]	0.00377	8.00 to 8.60		
Cc1c[nH]c2ncnc(N3CCC(N)(CNS(=O)(=O)c4ccccc4)C3)c12 (stereo not drawn) [Example 77, N-{[3-amino-1-(5-methyl-7H-pyrrolo[2,3-d]pyrimidin-4-yl)pyrrolidin-3-yl]methyl}benzenesulfonamide]	0.177	5.00 to 7.00		
N[C@]1(CNC(=O)c2ccc(Cl)cc2)CCN(c2ncnc3[nH]cc(Cl)c23)C1 [Example 70, N—(((S)-3-amino-1-(5-chloro-7H-pyrrolo[2,3-d]pyrimidinechlorobenzamide (70)-4-yl)pyrrolidin-3-yl)methyl)-4]	0.00544	8.00 to 8.60		
Cc1c[nH]c2ncnc(N3CCC(N)(CNc4ccc(Cl)nn4)C3)c12 (stereo not drawn) [Example 52, N-{[3-amino-1-(5-methyl-7H-pyrrolo[2,3-d]pyrimidin-4-yl)pyrrolidin-3-yl]methyl}-6-chloropyridazin-3-amine]		7.00 to 8.00	0.082	
Cc1c[nH]c2ncnc(N3CC[C@](N)(CNc4ccc(Cl)cc4)C3)c12 [Example 18, (3S)-3-{[(4-chlorophenyl)amino]methyl}-1-(5-methyl-7H-pyrrolo[2,3-d]pyrimidin-4-yl)pyrrolidin-3-amine]		8.60 to 9.60	0.002	
Cc1c[nH]c2ncnc(N3CC[C@](N)(CNC(=O)c4c(F)cccc4Cl)C3)c12 [Example 116]	0.0681	7.00 to 8.00		

Molecule	IC50 [1] [µM]	pIC50	IC50 (Table 3) [µM]	IC50 (Table 4) [µM]
Cc1ccn2ncnc(N3CCC(N)(CNc4cccc(Cl)c4Cl)C3)c12 (stereo not drawn) [Example 10, 3-{[(2,3-dichlorophenyl)amino]methyl}-1-(5-methylpyrrolo[2,1-f][1,2,4]triazin-4-yl)pyrrolidin-3-amine]		8.00 to 8.60	0.003	
CCc1c[nH]c2ncnc(N3CCC(N)(CNc4cccc(C(F)(F)F)c4)C3)c12 (stereo not drawn) [Example 9]		8.60 to 9.60	0.002	
NC1(CNc2cccc(C(F)(F)F)c2)CCN(c2ccnc3[nH]ccc23)C1 (stereo not drawn) [Example 42, 1-(1H-pyrrolo[2,3-b]pyridin-4-yl)-3-({[3-(trifluoromethyl)phenyl]amino}-methyl)pyrrolidin-3-amine]		7.00 to 8.00	0.0354	
Cc1c[nH]c2ncnc(N3CCC(N)(CN(C)Cc4ccc(Cl)cc4)C3)c12 (stereo not drawn) [Example 45, 3-{[(4-chlorobenzyl)(methyl)-amino]methyl}-1-(5-methyl-7H-pyrrolo[2,3-d]pyrimidin-4-yl)pyrrolidin-3-amine]		5.00 to 7.00	0.144	
N[C@]1(CNC(=O)c2ccc(F)c(F)c2)CCN(c2ncnc3[nH]cc(Cl)c23)C1 [Example 129, N-{[(3S)-3-amino-1-(5-chloro-7H-pyrrolo[2,3-d]pyrimidin-4-yl)pyrrolidin-3-yl]methyl}-3,4-difluorobenzamide]	0.00334	8.00 to 8.60		
N[C@]1(CNC(=O)c2ccc(Cl)cc2F)CCN(c2ncnc3[nH]cc(Cl)c23)C1 [Example 84, N-{[(3S)-3-amino-1-(5-chloro-7H-pyrrolo[2,3-d]pyrimidin-4-yl)pyrrolidin-3-yl]methyl}-4-chloro-2-fluorobenzamide]	0.0111	7.00 to 8.00		
CCc1c[nH]c2ncnc(N3CC[C@](N)(CNC(=O)c4cccc(F)c4F)C3)c12 [Example 89]	0.00278	8.00 to 8.60		
N#Cc1c[nH]c2ncnc(N3CC[C@](N)(CNC(=O)c4ccc(F)cc4)C3)c12 [Example 94]	0.00923	8.00 to 8.60		
Cc1c[nH]c2ncnc(N3CCC(N)(CNCCN(C)C)C3)c12 (stereo not drawn) [Example 46, N′-{[3-amino-1-(5-methyl-7H-pyrrolo[2,3-d]pyrimidin-4-yl)pyrrolidin-3-yl]methyl}-N,N-dimethylethane-1,2-diamine]		5.00 to 7.00	0.125	
CCc1c[nH]c2ncnc(N3CC[C@](N)(CNc4cc(C)on4)C3)c12 [Example 1, N—(((S)-3-amino-1-(5-ethyl-7H-pyrrolo[2,3-d]pyrimidin-4-yl)pyrrolidin-3-yl)methyl)-5-methylisoxazol-3-amine]		7.00 to 8.00	0.0154	
Cc1c[nH]c2ncnc(N3CCC(N)(CNc4ccc(S(=O)(=O)NCc5ccccc5)cc4)C3)c12 (stereo not drawn) [Example 12, 4-({[3-amino-1-(5-methyl-7H-pyrrolo[2,3-d]pyrimidin-4-yl)pyrrolidin-3-yl]methyl}amino)-N-benzylbenzenesulfonamide]		7.00 to 8.00	0.0105	
Cc1c[nH]c2ncnc(N3CC[C@](N)(CNc4cccc(C(F)(F)F)c4F)C3)c12 [Example 36, (3S)-3-({[2-fluoro-3-(trifluoromethyl)phenyl]amino}-methyl)-1-(5-methyl-7H-pyrrolo[2,3-d]pyrimidin-4-yl)pyrrolidin-3-amine]		8.60 to 9.60	0.002	
N#Cc1c[nH]c2ncnc(N3CC[C@](N)(CNC(=O)c4ccc(F)cc4F)C3)c12 [Example 96, N-{[(3S)-3-amino-1-(5-cyano-7H-pyrrolo[2,3-d]pyrimidin-4-yl)pyrrolidin-3-yl]methyl}-2,4-difluorobenzamide]	0.00771	8.00 to 8.60		
Cc1cccc(F)c1C(=O)NC[C@@]1(N)CCN(c2ncnc3[nH]cc(Cl)c23)C1 [Example 122]	0.029	7.00 to 8.00		
Cc1c[nH]c2ncnc(N3CCC(N)(CNc4cccc(F)c4F)C3)c12 (stereo not drawn) [Example 32, 3-{[(2,3-difluorophenyl)amino]methyl}-1-(5-methyl-7H-pyrrolo[2,3-d]pyrimidin-4-yl)pyrrolidin-3-amine]		7.00 to 8.00	0.0105	
CCc1c[nH]c2ncnc(N3CC[C@](N)(CNC(=O)c4ccc(F)cc4F)C3)c12 [Example 73, N-{[(3S)-3-amino-1-(5-ethyl-7H-pyrrolo[2,3-d]pyrimidin-4-yl)pyrrolidin-3-yl]methyl}-2,4-difluorobenzamide]	0.000269	8.60 to 9.60		
